Measurements published in ChEMBL document CHEMBL1201862, “PubChem BioAssay data set” (2004).
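The compound was tested at five concentrations on cells cultured in 96-well plates, with a 48-hour exposure period. GI50 marks 50% less growth.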 Calls of active or inactive are those of the source. Rule as the data show it: active = GI50 up to about 1.1 µM and inactive = higher.

Assays:
Assay in all cases: inhibition of tumour cell growth, NCI panel, 48 h
SK-MEL-2 = system: SK-MEL-2
SF-295 = system: SF-295
Malme-3M = system: Malme-3M
COLO 205 = system: COLO 205
LOX IMVI = system: LOX IMVI
OVCAR-3 = system: OVCAR-3
SK-MEL-5 = system: SK-MEL-5
SNB-75 = system: SNB-75
HCT-116 = system: HCT-116
CCRF-CEM = system: CCRF-CEM
SF-268 = system: SF-268
UACC-257 = system: UACC-257
HOP-92 = system: HOP-92
RPMI-8226 = system: RPMI-8226
PC-3 = system: PC-3
ACHN = system: ACHN
NCI-H460 = system: NCI-H460
SNB-19 = system: SNB-19
SN12C = system: SN12C
NCI-H522 = system: NCI-H522

Compound	GI50 (SK-MEL-2)	GI50 (SF-295)	GI50 (Malme-3M)	GI50 (COLO 205)	GI50 (LOX IMVI)	GI50 (OVCAR-3)	GI50 (SK-MEL-5)	GI50 (SNB-75)	GI50 (HCT-116)	GI50 (CCRF-CEM)	GI50 (SF-268)	GI50 (UACC-257)	GI50 (HOP-92)	GI50 (RPMI-8226)	GI50 (PC-3)	GI50 (ACHN)	GI50 (NCI-H460)	GI50 (SNB-19)	GI50 (SN12C)	GI50 (NCI-H522)
C[n+]1cn(-c2ccc([N+](=O)[O-])cn2)c2ccccc21	> 100 µM (inactive)	> 100 µM (inactive)	> 100 µM (inactive)	> 100 µM (inactive)	> 100 µM (inactive)	> 100 µM (inactive)	> 100 µM (inactive)	> 100 µM (inactive)	> 100 µM (inactive)	> 100 µM (inactive)	> 100 µM (inactive)	> 100 µM (inactive)	> 100 µM (inactive)	> 100 µM (inactive)	> 100 µM (inactive)	> 100 µM (inactive)	> 100 µM (inactive)	> 100 µM (inactive)		
Cc1ccc(OCC2OC(n3cnc4c(N(C)C)nc(Br)nc43)CC2Oc2ccc(C)cc2)cc1 (stereo unspecified)	> 100 µM (inactive)	> 100 µM (inactive)	> 100 µM (inactive)	> 100 µM (inactive)	> 100 µM (inactive)	> 100 µM (inactive)	> 100 µM (inactive)		> 100 µM (inactive)	> 100 µM (inactive)	> 100 µM (inactive)	> 100 µM (inactive)	> 100 µM (inactive)	58.2 µM (inactive)	> 100 µM (inactive)	> 100 µM (inactive)	> 100 µM (inactive)	> 100 µM (inactive)	> 100 µM (inactive)	> 100 µM (inactive)
CC(=O)C1(Cc2cccc3ccccc23)S(=O)(=O)OCCOS1(=O)=O		0.843 µM (active)	17.3 µM (inactive)	17 µM (inactive)	12.1 µM (inactive)	19.7 µM (inactive)	12.2 µM (inactive)	35.4 µM (inactive)	19.6 µM (inactive)	38.7 µM (inactive)	19.9 µM (inactive)	4.11 µM (inactive)	15.5 µM (inactive)	19.5 µM (inactive)	14.2 µM (inactive)	18.7 µM (inactive)	17.3 µM (inactive)	18.4 µM (inactive)	11.9 µM (inactive)	21.6 µM (inactive)
Nc1cc(CO)cc(Nc2nc3ccc(Cl)cc3c3[nH]c4ccccc4c23)c1	4.27 µM (inactive)	3.56 µM (inactive)	5.27 µM (inactive)	2.29 µM (inactive)					3.34 µM (inactive)	4.79 µM (inactive)	2.86 µM (inactive)	10.7 µM (inactive)	2.43 µM (inactive)	2.96 µM (inactive)	4.92 µM (inactive)	3.17 µM (inactive)	2.2 µM (inactive)	4.32 µM (inactive)	2.89 µM (inactive)	2.79 µM (inactive)
Cc1ccc(S(=O)(=O)N2CCSCCSCCN(S(=O)(=O)c3ccc(C)cc3)CCN(S(=O)(=O)c3ccc(C)cc3)CC2)cc1	> 100 µM (inactive)	> 100 µM (inactive)	> 100 µM (inactive)	> 100 µM (inactive)	> 100 µM (inactive)	> 100 µM (inactive)	> 100 µM (inactive)		> 100 µM (inactive)	> 100 µM (inactive)	> 100 µM (inactive)	> 100 µM (inactive)	> 100 µM (inactive)	> 100 µM (inactive)	> 100 µM (inactive)	> 100 µM (inactive)	> 100 µM (inactive)	> 100 µM (inactive)	> 100 µM (inactive)	> 100 µM (inactive)
COc1ccc(/C=C2\Sc3nnc(CNc4ccc(Cl)cc4)n3N=C2c2cc(F)c(Cl)cc2Cl)cc1OC	> 100 µM (inactive)	> 100 µM (inactive)			29.3 µM (inactive)	48.1 µM (inactive)	> 100 µM (inactive)		14.8 µM (inactive)	4.97 µM (inactive)	20.6 µM (inactive)	> 100 µM (inactive)	17 µM (inactive)	7.57 µM (inactive)	67.1 µM (inactive)	48.4 µM (inactive)	53.6 µM (inactive)			27.7 µM (inactive)
N=c1oc2ccc(Cl)cc2cc1C(=O)NC1CCCCC1	47.6 µM (inactive)			51.6 µM (inactive)	53 µM (inactive)	44.4 µM (inactive)	84.3 µM (inactive)	84.5 µM (inactive)	55.5 µM (inactive)	33.7 µM (inactive)	> 100 µM (inactive)	> 100 µM (inactive)	> 100 µM (inactive)	59.3 µM (inactive)	68.5 µM (inactive)	> 100 µM (inactive)	59.6 µM (inactive)	> 100 µM (inactive)	> 100 µM (inactive)	
CC1(C)C=Cc2c(cc3oc4ccc5c(c4c(=O)c3c2O)C=CC(C)(C)O5)O1	> 100 µM (inactive)	> 100 µM (inactive)	> 100 µM (inactive)	> 100 µM (inactive)	> 100 µM (inactive)	> 100 µM (inactive)	> 100 µM (inactive)		> 100 µM (inactive)	> 100 µM (inactive)	> 100 µM (inactive)	> 100 µM (inactive)	> 100 µM (inactive)	> 100 µM (inactive)	> 100 µM (inactive)	> 100 µM (inactive)		> 100 µM (inactive)	> 100 µM (inactive)	> 100 µM (inactive)
COC1C(=O)CCC2(CO2)C1(O)C1(C)OC1CC=C(C)C (stereo unspecified)	27.6 µM (inactive)	29.8 µM (inactive)		16.6 µM (inactive)	5.21 µM (inactive)	25.2 µM (inactive)	14.7 µM (inactive)	69.8 µM (inactive)	11.3 µM (inactive)		33.5 µM (inactive)	23.2 µM (inactive)	25.8 µM (inactive)		28.3 µM (inactive)	17.6 µM (inactive)	27.3 µM (inactive)	15 µM (inactive)	> 100 µM (inactive)	
O=C1CCC[C@H]2O[C@@H](COC(=O)c3ccccc3)C[C@H]2O1	> 100 µM (inactive)	> 100 µM (inactive)		> 100 µM (inactive)		> 100 µM (inactive)	> 100 µM (inactive)	> 100 µM (inactive)		> 100 µM (inactive)	> 100 µM (inactive)	> 100 µM (inactive)	> 100 µM (inactive)	> 100 µM (inactive)	> 100 µM (inactive)	> 100 µM (inactive)	> 100 µM (inactive)	> 100 µM (inactive)	> 100 µM (inactive)	
C[C@@H]1S[C@H](c2c(Cl)cccc2Cl)N2Cc3ccccc3N=C12	> 100 µM (inactive)	> 100 µM (inactive)		> 100 µM (inactive)	> 100 µM (inactive)	> 100 µM (inactive)	> 100 µM (inactive)	> 100 µM (inactive)	11.5 µM (inactive)	> 100 µM (inactive)	> 100 µM (inactive)	> 100 µM (inactive)	> 100 µM (inactive)	> 100 µM (inactive)	> 100 µM (inactive)	> 100 µM (inactive)	> 100 µM (inactive)	> 100 µM (inactive)	> 100 µM (inactive)	
